In US12637661B2, “Methods of enhancing stem cell differentiation into beta cells” (Vertex Pharmaceuticals Incorporated, priority 2018, dated 2026):

Assays:
[1] = system: stage 5 cells of hESC line (D97, D114, and D241 HUES8); assay: Stage 5 of directed differentiation of hESC line treated with EZH2 inhibitor, HDAC inhibitor or combination; assay type: cell-based, human; settings: for percentage of pre-SC-β cells (C-PEP+, NKX6-1+): stage 5, FIG. 15; for performance compared with other inhibitors of the same class: stage 5, FIGS. 14 and 15; for proportion of all β cell types: stage 5, FIG. 14
Protocol: The mRNA expression of NGN3 was investigated in each steps of directed differentiation described herein (FIG. 5), and it was observed that cells expressed NGN3 to initiate SC-β cell differentiation (FIG. 7). The effects of inhibition of histone methylation and deacetylation on SC-β cell differentiation were investigated (FIG. 6). Stage 5 of the directed differentiation as described herein (FIGS. 5-6) in hESC line (D97, D114, and […] HUES8) was treated with an EZH2 inhibitor (DZNep), HDAC inhibitor (KD5170), and a combination thereof (FIG. 6). Candidate inhibitor screening was performed as described in FIG. 18. Inhibition of EZH2 or HDAC in stage 5 (D97 HUES8) increased endocrine cells and SC-β cells (FIG. 8). […] SC-β cells comprised 35.4% at the end of stage 5 with DZNep and KD5170. […] Combined inhibition of EZH2 and HDAC in stage 5 was tested as described in FIG. 17. Combined inhibition of EZH2 and HDAC in stage 5 ([…] HUES8) increased Neorogenin3+ progenitors in stage 5 (FIGS. 12-13). Combined inhibition of EZH2 and HDAC in stage 5 increased NKX6.1+ progenitor cells (FIG. 16).

EZH2 = EZH2 (Homo sapiens, UniProt Q15910); settings: cited from earlier work
Chain of EZH2 (Q15910 whole entry, species assumed): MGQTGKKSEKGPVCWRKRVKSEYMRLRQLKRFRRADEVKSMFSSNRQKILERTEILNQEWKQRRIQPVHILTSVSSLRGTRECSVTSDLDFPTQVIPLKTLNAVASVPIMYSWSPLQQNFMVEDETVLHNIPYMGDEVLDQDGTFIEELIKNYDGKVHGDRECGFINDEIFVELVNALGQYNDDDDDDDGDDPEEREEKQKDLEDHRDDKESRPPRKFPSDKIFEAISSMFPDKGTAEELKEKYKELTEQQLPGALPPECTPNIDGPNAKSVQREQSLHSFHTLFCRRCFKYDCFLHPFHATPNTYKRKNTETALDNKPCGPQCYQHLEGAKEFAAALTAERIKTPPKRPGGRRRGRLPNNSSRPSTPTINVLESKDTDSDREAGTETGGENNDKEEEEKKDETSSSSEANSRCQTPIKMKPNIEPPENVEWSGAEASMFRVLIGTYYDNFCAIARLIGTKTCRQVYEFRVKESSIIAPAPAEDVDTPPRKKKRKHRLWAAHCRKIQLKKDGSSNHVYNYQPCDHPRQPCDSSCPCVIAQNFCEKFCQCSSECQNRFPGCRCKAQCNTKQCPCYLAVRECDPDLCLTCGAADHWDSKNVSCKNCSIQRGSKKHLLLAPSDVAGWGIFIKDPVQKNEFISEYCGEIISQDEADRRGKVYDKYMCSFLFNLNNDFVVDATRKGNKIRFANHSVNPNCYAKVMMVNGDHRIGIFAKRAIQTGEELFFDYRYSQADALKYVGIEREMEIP
Chain of EZH2 (O75530 whole entry partner, species assumed): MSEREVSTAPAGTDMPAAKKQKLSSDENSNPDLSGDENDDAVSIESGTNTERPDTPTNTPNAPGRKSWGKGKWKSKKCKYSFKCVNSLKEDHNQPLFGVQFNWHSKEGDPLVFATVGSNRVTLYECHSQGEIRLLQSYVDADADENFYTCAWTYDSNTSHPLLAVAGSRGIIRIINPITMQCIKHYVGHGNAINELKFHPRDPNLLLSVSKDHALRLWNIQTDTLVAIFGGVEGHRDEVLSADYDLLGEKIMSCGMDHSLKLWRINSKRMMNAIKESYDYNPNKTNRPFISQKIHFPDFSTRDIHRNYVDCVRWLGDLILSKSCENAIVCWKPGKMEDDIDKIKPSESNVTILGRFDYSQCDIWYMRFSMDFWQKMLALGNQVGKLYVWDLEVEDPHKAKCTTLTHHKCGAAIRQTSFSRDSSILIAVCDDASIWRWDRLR
Chain of EZH2 (Q15022 whole entry partner, species assumed): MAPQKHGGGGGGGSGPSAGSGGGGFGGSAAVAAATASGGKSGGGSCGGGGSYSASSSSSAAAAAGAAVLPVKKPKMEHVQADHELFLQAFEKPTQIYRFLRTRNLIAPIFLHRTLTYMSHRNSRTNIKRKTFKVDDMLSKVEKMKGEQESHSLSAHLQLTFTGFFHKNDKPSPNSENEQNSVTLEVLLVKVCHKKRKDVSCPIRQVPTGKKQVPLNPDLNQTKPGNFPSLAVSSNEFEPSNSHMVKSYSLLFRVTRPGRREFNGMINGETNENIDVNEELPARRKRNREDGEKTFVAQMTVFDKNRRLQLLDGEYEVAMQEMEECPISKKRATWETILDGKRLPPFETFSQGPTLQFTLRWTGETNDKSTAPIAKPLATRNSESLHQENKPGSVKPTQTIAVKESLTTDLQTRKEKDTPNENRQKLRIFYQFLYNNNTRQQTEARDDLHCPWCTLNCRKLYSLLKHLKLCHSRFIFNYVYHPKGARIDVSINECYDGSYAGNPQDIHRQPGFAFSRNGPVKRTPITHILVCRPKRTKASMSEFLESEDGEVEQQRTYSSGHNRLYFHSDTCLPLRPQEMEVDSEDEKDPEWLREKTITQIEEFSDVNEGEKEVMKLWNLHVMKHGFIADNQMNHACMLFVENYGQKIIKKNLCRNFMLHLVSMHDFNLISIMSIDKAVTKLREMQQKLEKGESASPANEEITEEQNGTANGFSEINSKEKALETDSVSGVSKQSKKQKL

Nc1nccc2c1ncn2[C@@H]1C=C(CO)[C@@H](O)[C@H]1O [DZNep, 3-deazaneplanocin A]
viability ([1]; 1 μM throughout stage 5): without affecting viability | (VMAT1+INS−) EC population removed ([1]; 1 μM throughout stage 5, FIGS. 19-21): more than half | proportion / differentiation of endocrine cells (CHGA+) ([1]; stage 5): increased | percentage of pre-SC-β cells (C-PEP+, NKX6-1+) [1]: increased | progenitors cells (NKX6-1+) ([1]; stage 5, FIG. 16): increased | VMAT1+INS− EC population ([1]; stage 5, FIG. 19): specific decrease | NKX6.1-ChromA+ PH cells ([1]; stage 5, FIG. 20): concomitant increase | NKX6.1+INS+ SC-β cell population ([1]; stage 5, FIG. 21): unaffected | performance compared with other inhibitors of the same class [1]: outperforms other EZH2 inhibitors | selectivity / specificity for EZH2 (in words) (EZH2): may not be specific to EZH2

CC[C@H](C)n1cc(C)c2c(C(=O)NCc3c(C)cc(C)[nH]c3=O)cc(-c3ccc(N4CCNCC4)nc3)cc21 [GSK126]
proportion of all β cell types [1]: did not increase

CC(=O)SCC(=O)c1ccc(NS(=O)(=O)c2ccc(OCCCN(C)C)cc2)nc1 [KD5170]
percentage of pre-SC-β cells (C-PEP+, NKX6-1+) [1]: increased | performance compared with other inhibitors of the same class [1]: outperforms other HDAC inhibitors

O=C(CCCCCCC(=O)Nc1ccccc1)NO [SAHA]
percentage of pre-SC-β cells (C-PEP+, NKX6-1+) [1]: did not increase

CC(/C=C/C(=O)NO)=C\[C@@H](C)C(=O)c1ccc(N(C)C)cc1 [TSA]
percentage of pre-SC-β cells (C-PEP+, NKX6-1+) [1]: did not increase

CCCc1cc(C)[nH]c(=O)c1CNC(=O)c1cc(-c2ccc(N3CCN(C(C)C)CC3)nc2)cc2c1cnn2C(C)C [UNC1999]
proportion of all β cell types [1]: did not increase | selectivity / specificity for EZH2 (in words) (EZH2): less selective

CCCC(=O)[O-].[Na+] [sodium butyrate]
percentage of pre-SC-β cells (C-PEP+, NKX6-1+) [1]: did not increase
